Each structure is given as a SMILES string.

The test system of assay [1] is CEM-SS. Briefly: Compound was evaluated for cytotoxicity against CEM SS cells infected with HIV-1(LAI strain). Type of assay: functional. Conditions: Homo sapiens.
Assay [2] deals with CEM-SS. Description: Compound was evaluated for antiviral activity against CEM SS cells infected with HIV-1(LAI strain). The class given is functional, cell-based. Conditions: Homo sapiens.

By CC50 is commonly meant the concentration giving 50% cytotoxicity. Lower therefore signals harm at low concentration. One may read the IC50 as the concentration needed to halve the response being measured. As for `CCc1c(C)nc(Cl)c([N+](=O)[O-])c1Sc1cc(C)cc(C)c1`, the CC50 in the assay on CEM-SS [1] is over 1 µM. Further, in the assay with CEM-SS [2], the midpoint of inhibition, the IC50, lay at 8 µM.

`CCc1c(C)nc(O)c([N+](=O)[O-])c1Sc1cc(C)cc(C)c1` displayed a CC50 with CEM-SS [1] of over 10 µM. This molecule also showed a 50% inhibitory concentration (IC50) in the assay with CEM-SS [2] of 6 µM.

`Cc1cn([C@H]2C[C@H](N=[N+]=[N-])[C@@H](CO)O2)c(=O)[nH]c1=O` [ZIDOVUDINE] came in with a cytotoxic concentration (CC50) with CEM-SS [1] of over 10 µM. Further, the midpoint of inhibition in the assay on CEM-SS [2], the IC50, lay at 3 µM.

Consider `CC(=O)OCCCc1cc(Sc2cc(C)cc(C)c2)c([N+](=O)[O-])c(O)n1`, for which, in the assay on CEM-SS [1], the CC50 is over 1 µM. In the assay with CEM-SS [2], this molecule showed an IC50 of 1 µM.

Consider `CCc1c(C)nc(Cl)c([N+](=O)[O-])c1[S+]([O-])c1cc(C)cc(C)c1` (configuration not stated), for which the CC50 in the assay on CEM-SS [1] is 8 µM. Also, 3 µM corresponded to half-maximal inhibition in the assay with CEM-SS [2] (IC50).

Molecule `Cc1cc(C)cc(Sc2cc(CCCO)nc(O)c2[N+](=O)[O-])c1` gave a CC50 with CEM-SS [1] of over 1 µM. This molecule yielded an IC50 with CEM-SS [2] of 8 µM.

Values taken from ChEMBL document CHEMBL1129186, “Synthesis of new non-nucleoside inhibitors of HIV-1” (Bioorg Med Chem Lett, 1996).
